In patent US20230279246A1, “MOLECULE-CONTAINING SURFACES AND METHODS OF PREPARATION THEREOF” (University of Durham, priority 2020, published 2023):

Test system: Gram-negative Escherichia coli BW25113
Experiment: Antibacterial testing of coated substrates, CFU plate counting
Conditions: relative to untreated substrate; for Bacteria Loss/Log10 Reduction E. coli (Gram-negative): coated PET film, 4 h at 30 °C, mean ± standard deviation; for Log10 Reduction E. coli: plasma poly(4-vinylaniline) series, title: polypropylene film, text: PET substrates, average ± standard deviation
Protocol: The prepared substrates with their respective coatings were subsequently tested for their antibacterial qualities against representative species of Gram-negative and Gram-positive bacteria. Gram-negative Escherichia coli BW25113 (CGSC 7636; rrnB3 ΔlacZ4787 hsdR514 Δ(araBAD)567 Δ(rhaBAD)568 rph-1) and Gram-positive Staphylococcus aureus (FDA209P, an MSSA strain; ATCC 6538P) bacteria cultures were prepared using autoclaved (Autoclave Vario 1528, Dixons Ltd.) Luria-Bertani broth media (LB; L3022, Sigma-Aldrich Ltd., 2% w/v in Milli-Q® grade water). A 5 ml bacterial culture was grown from a single colony for 16 h at 37° C., and then 50 μL used to inoculate a sterile polystyrene cuvette (Catalogue No. 67.742, Sarstedt AG) containing 1 mL of LB Broth. The cuvette was covered with Parafilm (Cole-Parmer Ltd.) and then placed inside a shaking incubator (model Stuart Orbital Incubator S1500, Cole-Parmer Ltd.) set at 37° C. and 120 rpm. An optical density OD600nm=0.4 was verified using a UV-Vis spectrophotometer (model Jenway 6300, Cole-Parmer Ltd.) to obtain bacteria at the mid-log phase of growth.
Uncoated control samples were washed in absolute ethanol for 15 minutes and then dried under vacuum in order to make sure they were sterile and clean. Sterile microtubes (1.5 mL, Sarstedt AG) were loaded with the untreated, or coated substrates. Next, 100 μL of the prepared bacterial culture was placed onto each substrate (so that the microorganisms could interact with one side of the surface), and left to incubate (model Bacterial Incubator 250, LMS Ltd.) for 4 hours at 30° C. Next, 900 μL of autoclaved Luria-Bertani broth media was pipetted into each microtube and vortexed (model Vortex-Genie 2, Scientific Industries Inc.) in order to recover the bacteria as a 10-fold dilution (10^−1). Further ten-fold serial dilutions were undertaken to provide 10^−2, 10^−3, 10^−4, 10^−5 and 10^−6 samples. Colony-forming unit (CFU) plate counting was performed by placing 10 μL drops from each diluted sample onto autoclaved Luria-Bertani Agar solid plates (EZMix™ powder, dust free, fast dissolving fermentation medium, L7533, Sigma-Aldrich Ltd.) and incubated (model Bacterial Incubator 250, LMS Ltd.) for 16 hours at 30° C. The number of colonies visible at each dilution were then counted. All tests were performed in triplicate.
Gram-negative Escherichia coli BW25113 (CGSC 7636; rrnB3 ΔlacZ4787 hsdR514 Δ(araBAD)567 Δ(rhaBAD)568 rph-1) and Gram-positive Staphylococcus aureus (FDA209P, an MSSA strain; ATCC 6538P) bacteria cultures were prepared using autoclaved (Autoclave Vario 1528, Dixons Ltd.) Luria-Bertani broth media (LB; L3022, Sigma-Aldrich Ltd., 2% w/v in grade water). A 5 ml bacterial culture was grown from a single colony for 16 h at 37° C., and then 50 μL used to inoculate a sterile polystyrene cuvette (Part No. 67.742, Sarstedt AG) containing 1 mL of LB Broth. The cuvette was covered with Parafilm (Cole-Parmer Ltd.) and then placed inside a shaking incubator (model Stuart Orbital Incubator S1500, Cole-Parmer Ltd.) set at 37° C. and 120 rpm to allow the bacteria to grow until an optical density OD600nm=0.4 was measured using a UV-Vis spectrophotometer (model Jenway 6300, Cole-Parmer Ltd.) which corresponded to the mid-log phase growth of bacteria.
Antibacterial testing was performed within 24 h of fabricating the coatings. Uncoated control samples were cleaned and sterilized by washing in absolute ethanol for 15 min and drying under vacuum. Each uncoated or coated substrate piece was placed aseptically inside a sterile microtube (1.5 mL, Sarstedt AG) so that the microorganisms could interact with one side of the surface. Next, 100 μL of the prepared bacterial culture was pipetted onto each substrate. In practice, the porous substrates absorbed the liquid so that the entire 15 mm×15 mm area of the samples was permeated by the bacterial suspension.

SMILES	Bacteria Loss/Log10 Reduction E. coli (Gram-negative)	Bacteria Loss/Log10 Reduction E. coli (Gram-negative) (listed as cinnamaldehyde)	Log10 Reduction E. coli (listed as Cinnamaldehyde-only)	Log10 Reduction E. coli (listed as cinnamaldehyde-only)	Bacteria Loss/Log10 Reduction E. coli (Gram-negative) (listed as Tannic acid-only)
O=C/C=C/c1ccccc1 [Cinnamaldehyde, trans-cinnamaldehyde]	0.12 ± 0.07 Log10 Reduction	very small antibacterial effect	0.12 ± 0.07 Log10 Reduction	very small effect	–
O=C(OC[C@H]1O[C@@H](OC(=O)c2cc(O)c(O)c(OC(=O)c3cc(O)c(O)c(O)c3)c2)[C@H](OC(=O)c2cc(O)c(O)c(OC(=O)c3cc(O)c(O)c(O)c3)c2)[C@@H](OC(=O)c2cc(O)c(O)c(OC(=O)c3cc(O)c(O)c(O)c3)c2)[C@@H]1OC(=O)c1cc(O)c(O)c(OC(=O)c2cc(O)c(O)c(O)c2)c1)c1cc(O)c(O)c(OC(=O)c2cc(O)c(O)c(O)c2)c1 [Tannic Acid, tannic acid]	0.00 Log10 Reduction	–	–	–	no antibacterial activity
